The source of these data is US20250108142A1, “METHODS FOR TREATING LEAKAGE FROM A GASTROINTESTINAL SITE” (Ethicon, Inc., priority 2023, published 2025).

A short description of the series: Release of ibuprofen from fibrin clot in an in vitro setting. It counts as physicochemical. As for the experimental part: Release of ibuprofen from fibrin clot in an in vitro setting: A similar procedure was applied for ibuprofen embedded in fibrin sealant and for PLGA-ibuprofen embedded in fibrin sealant. […] This step was repeated 15 times (days). The ibuprofen concentration was measured by its UV signature, that is, UV absorption at 221 nm.

On to `CC(C)Cc1ccc(C(C)C(=O)O)cc1` (stereo not shown) [Ibuprofen, ibuprofen], for which the release profile entry is listed as “less than controlled manner”.
